Patent publication US20230085307A1, “PYRIDAZINONE COMPOUND AND HERBICIDE” (NISSAN CHEMICAL CORPORATION, priority 2019, published 2023)

Legend:
[1] = tested on: redroot pigweed; experiment: Test Example 4: herbicidal effect by soil treatment (Table 19, symbol N); format: in vivo, redroot pigweed (Amaranthus retroflexus); conditions: AAH 320 g/ha
Outline: (§1)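 Soil-surface application: an emulsion agent diluted with water to the predetermined dose is sprayed uniformly over seeds lying under roughly 1.5 cm of sterilized diluvial soil. Boxes stay in a greenhouse at 25° C. to 30° C. Three weeks later, each species is graded on previously defined criteria.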

[2] = tested on: chickweed; experiment: Test Example 4: herbicidal effect by soil treatment (Table 19, symbol P); format: in vivo, common chickweed (Stellaria media); conditions: AAH 320 g/ha
Outline: as §1

[3] = tested on: barnyard grass; experiment: Test Example 3: herbicidal effect by foliage application, Wagner pot (Table 18, symbol H); format: in vivo, barnyard grass (Echinochloa crus-galli); conditions: 320 g/ha
Outline: (§2)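 Plants were sown in alluvial soil held under 0.1–0.5 cm standing water and grown 14 days in a greenhouse at 25–30 °C. An emulsifiable formulation, water-diluted to the set dose, was then sprayed onto the foliage, and effects were scored three weeks later using previously defined criteria.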

[4] = tested on: redroot pigweed; experiment: Test Example 5: herbicidal effect by foliage application, plastic box (Table 20, symbol N); format: in vivo, redroot pigweed (Amaranthus retroflexus); conditions: foliage application, AAH 320 g/ha, three weeks after application
Outline: (§3)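 Sow seeds spot-wise in sterilized diluvial soil; cover with ~1.5 cm soil. Grow 14 days in greenhouse, 25° C. to 30° C. Spray foliage with emulsion diluted to predetermined amount. Rate effect after 3 weeks.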

[5] = tested on: barnyard grass; experiment: Test Example 5: herbicidal effect by foliage application, plastic box (Table 20, symbol H); format: in vivo, barnyard grass (Echinochloa crus-galli); conditions: foliage application
Outline: as §3

[6] = tested on: green foxtail; experiment: Test Example 5: herbicidal effect by foliage application, plastic box (Table 20, symbol G); format: in vivo, green foxtail (Setaria viridis); conditions: foliage application
Outline: as §3

[7] = tested on: persian speedwell; experiment: Test Example 4: herbicidal effect by soil treatment (Table 19, symbol R); format: in vivo, Persian speedwell (Veronica persica); conditions: AAH 320 g/ha
Outline: as §1

[8] = tested on: blackgrass; experiment: Test Example 5: herbicidal effect by foliage application, plastic box (Table 20, symbol J); format: in vivo, blackgrass (Alopecurus myosuroides); conditions: foliage application
Outline: as §3

[9] = tested on: persian speedwell; experiment: Test Example 5: herbicidal effect by foliage application, plastic box (Table 20, symbol R); format: in vivo, Persian speedwell (Veronica persica); conditions: foliage application
Outline: as §3

[10] = tested on: lambsquarters; experiment: Test Example 4: herbicidal effect by soil treatment (Table 19, symbol O); format: in vivo, lambsquarters (Chenopodium album); conditions: AAH 320 g/ha
Outline: as §1

[11] = tested on: windgrass; experiment: Test Example 5: herbicidal effect by foliage application, plastic box (Table 20, symbol L); format: in vivo, windgrass (Apera spica-venti); conditions: foliage application
Outline: as §3

[12] = tested on: barnyard grass; experiment: Test Example 4: herbicidal effect by soil treatment (Table 19, symbol H); format: in vivo, barnyard grass (Echinochloa crus-galli); conditions: AAH 320 g/ha
Outline: as §1

[13] = tested on: wild oat; experiment: Test Example 5: herbicidal effect by foliage application, plastic box (Table 20, symbol I); format: in vivo, wild oat (Avena fatua); conditions: foliage application
Outline: as §3

[14] = tested on: chickweed; experiment: Test Example 5: herbicidal effect by foliage application, plastic box (Table 20, symbol P); format: in vivo, common chickweed (Stellaria media); conditions: foliage application, AAH 320 g/ha, three weeks after application
Outline: as §3

[15] = tested on: Italian ryegrass; experiment: Test Example 4: herbicidal effect by soil treatment (Table 19, symbol K); format: in vivo, Italian ryegrass (Lolium multiflorum); conditions: AAH 320 g/ha
Outline: as §1

[16] = tested on: southern crabgrass; experiment: Test Example 4: herbicidal effect by soil treatment (Table 19, symbol F); format: in vivo, southern crabgrass (Digitaria ciliaris); conditions: AAH 320 g/ha
Outline: as §1

[17] = tested on: velvetleaf; experiment: Test Example 4: herbicidal effect by soil treatment (Table 19, symbol M); format: in vivo, velvetleaf (Abutilon theophrasti); conditions: AAH 320 g/ha
Outline: as §1

[18] = tested on: Chinese sprangletop; experiment: Test Example 3: herbicidal effect by foliage application, Wagner pot (Table 18, symbol D); format: in vivo, chinese sprangletop (Leptochloa chinensis); conditions: 320 g/ha
Outline: as §2

[19] = tested on: rice flat sedge; experiment: Test Example 3: herbicidal effect by foliage application, Wagner pot (Table 18, symbol E); format: in vivo, rice flat sedge (Cyperus iria); conditions: 320 g/ha
Outline: as §2

[20] = tested on: velvetleaf; experiment: Test Example 5: herbicidal effect by foliage application, plastic box (Table 20, symbol M); format: in vivo, velvetleaf (Abutilon theophrasti); conditions: foliage application
Outline: as §3

[21] = tested on: southern crabgrass; experiment: Test Example 5: herbicidal effect by foliage application, plastic box (Table 20, symbol F); format: in vivo, southern crabgrass (Digitaria ciliaris); conditions: foliage application
Outline: as §3

[22] = tested on: blackgrass; experiment: Test Example 4: herbicidal effect by soil treatment (Table 19, symbol J); format: in vivo, blackgrass (Alopecurus myosuroides); conditions: AAH 320 g/ha
Outline: as §1

[23] = tested on: green foxtail; experiment: Test Example 4: herbicidal effect by soil treatment (Table 19, symbol G); format: in vivo, green foxtail (Setaria viridis); conditions: AAH 320 g/ha
Outline: as §1

[24] = tested on: lambsquarters; experiment: Test Example 5: herbicidal effect by foliage application, plastic box (Table 20, symbol O); format: in vivo, lambsquarters (Chenopodium album); conditions: foliage application
Outline: as §3

[25] = tested on: Italian ryegrass; experiment: Test Example 5: herbicidal effect by foliage application, plastic box (Table 20, symbol K); format: in vivo, Italian ryegrass (Lolium multiflorum); conditions: foliage application
Outline: as §3

[26] = tested on: false cleavers; experiment: Test Example 4: herbicidal effect by soil treatment (Table 19, symbol Q); format: in vivo, false cleavers (Galium spurium); conditions: AAH 320 g/ha
Outline: as §1

[27] = tested on: wild oat; experiment: Test Example 4: herbicidal effect by soil treatment (Table 19, symbol I); format: in vivo, wild oat (Avena fatua); conditions: AAH 320 g/ha
Outline: as §1

[28] = tested on: windgrass; experiment: Test Example 4: herbicidal effect by soil treatment (Table 19, symbol L); format: in vivo, windgrass (Apera spica-venti); conditions: AAH 320 g/ha
Outline: as §1

[29] = AAH 320 g/ha, three weeks after application
[30] = 320 g/ha, 3 weeks after application

Structure (SMILES) | N: redroot pigweed, herbicidal effect rating [1] | P: chickweed, herbicidal effect rating [2] | herbicidal effect on H (barnyard grass), rating 0-5 [3] | R: persian speedwell, herbicidal effect rating [7] | O: lambsquarters, herbicidal effect rating [10] | H: barnyard grass, herbicidal effect rating [12] | K: Italian ryegrass, herbicidal effect rating [15] | F: southern crabgrass, herbicidal effect rating [16] | M: velvetleaf, herbicidal effect rating [17] | herbicidal effect on D (Chinese sprangletop), rating 0-5 [18] | herbicidal effect on E (rice flat sedge), rating 0-5 [19] | J: blackgrass, herbicidal effect rating [22] | G: green foxtail, herbicidal effect rating [23] | Q: false cleavers, herbicidal effect rating [26] | I: wild oat, herbicidal effect rating [27] | also measured
COc1nn(C)c(=O)c(-c2c(-c3ccc(F)c(C)c3)sc3ccccc23)c1O [1-174] | 0 (Herbicidal rate of 5% or less (almost no effect)) | 5 (Herbicidal rate of 90% or more (almost completely withered)) | 1 (Herbicidal rate of 5% or more and less than 20%) | 4 (Herbicidal rate of 70% or more and less than 90%) | 0 (Herbicidal rate of 5% or less (almost no effect)) | 0 (Herbicidal rate of 5% or less (almost no effect)) | 0 (Herbicidal rate of 5% or less (almost no effect)) | 0 (Herbicidal rate of 5% or less (almost no effect)) | 0 (Herbicidal rate of 5% or less (almost no effect)) | 0 (Herbicidal rate of 5% or less (almost no effect)) | 3 (Herbicidal rate of 40% or more and less than 70%) | 0 (Herbicidal rate of 5% or less (almost no effect)) | 0 (Herbicidal rate of 5% or less (almost no effect)) | 0 (Herbicidal rate of 5% or less (almost no effect)) | 0 (Herbicidal rate of 5% or less (almost no effect)) | N: redroot pigweed, herbicidal effect [4]: 0 (Herbicidal rate of 5% or less (almost no effect)); H: barnyard grass, herbicidal effect [5, 29]: 0 (Herbicidal rate of 5% or less (almost no effect)); G: green foxtail, herbicidal effect [6, 29]: 2 (Herbicidal rate of 20% or more and less than 40%); J: blackgrass, herbicidal effect [8, 29]: 0 (Herbicidal rate of 5% or less (almost no effect)); R: persian speedwell, herbicidal effect [9, 29]: 4 (Herbicidal rate of 70% or more and less than 90%); L: windgrass, herbicidal effect [11, 29]: 0 (Herbicidal rate of 5% or less (almost no effect)); I: wild oat, herbicidal effect [13, 29]: 0 (Herbicidal rate of 5% or less (almost no effect)); P: chickweed, herbicidal effect [14]: 5 (Herbicidal rate of 90% or more (almost completely withered)); M: velvetleaf, herbicidal effect [20, 29]: 4 (Herbicidal rate of 70% or more and less than 90%); F: southern crabgrass, herbicidal effect [21, 29]: 0 (Herbicidal rate of 5% or less (almost no effect)); O: lambsquarters, herbicidal effect [24, 29]: 2 (Herbicidal rate of 20% or more and less than 40%); K: Italian ryegrass, herbicidal effect [25, 29]: 1 (Herbicidal rate of 5% or more and less than 20%)
Cc1nn(C)c(=O)c(-c2c(-c3ccc(CSCC(F)(F)F)cc3)sc3ccccc23)c1O [1-249] | 3 (Herbicidal rate of 40% or more and less than 70%) | 0 (Herbicidal rate of 5% or less (almost no effect)) | 5 (Herbicidal rate of 90% or more (almost completely withered)) | 4 (Herbicidal rate of 70% or more and less than 90%) | 3 (Herbicidal rate of 40% or more and less than 70%) | 0 (Herbicidal rate of 5% or less (almost no effect)) | 3 (Herbicidal rate of 40% or more and less than 70%) | 0 (Herbicidal rate of 5% or less (almost no effect)) | 0 (Herbicidal rate of 5% or less (almost no effect)) | 3 (Herbicidal rate of 40% or more and less than 70%) | 3 (Herbicidal rate of 40% or more and less than 70%) | 0 (Herbicidal rate of 5% or less (almost no effect)) | 0 (Herbicidal rate of 5% or less (almost no effect)) | 0 (Herbicidal rate of 5% or less (almost no effect)) | 0 (Herbicidal rate of 5% or less (almost no effect)) | effect on barnyard grass (H) [5, 30]: 4 (Herbicidal rate of 70% or more and less than 90%); effect on green foxtail (G) [6, 30]: 4 (Herbicidal rate of 70% or more and less than 90%); effect on blackgrass (J) [8, 30]: 0 (Herbicidal rate of 5% or less (almost no effect)); effect on persian speedwell (R) [9, 30]: 5 (Herbicidal rate of 90% or more (almost completely withered)); effect on windgrass (L) [11, 30]: 0 (Herbicidal rate of 5% or less (almost no effect)); effect on wild oat (I) [13, 30]: 0 (Herbicidal rate of 5% or less (almost no effect)); L: windgrass, herbicidal effect rating [28]: 0 (Herbicidal rate of 5% or less (almost no effect)); effect on velvetleaf (M) [20, 30]: 5 (Herbicidal rate of 90% or more (almost completely withered)); effect on southern crabgrass (F) [21, 30]: 4 (Herbicidal rate of 70% or more and less than 90%); effect on lambsquarters (O) [24, 30]: 5 (Herbicidal rate of 90% or more (almost completely withered)); effect on Italian ryegrass (K) [25, 30]: 4 (Herbicidal rate of 70% or more and less than 90%)
